Holding throughout (format): cell-based, human
Data set [1] concerns DLD-1 cells. The data set can be described thus: p53-induced apoptosis in Ad-p53-infected CRC cells (H33258 staining). The following applies: for block of apoptosis: inhibitor given at (up to) 8 hours following Ad-p53 infection, apoptosis at 24 hours. How it is done:
(§1) Cells and RNA. All cell lines used in this study were obtained from the American Type Culture Collection and were cultured in McCoy's medium supplemented with 10% fetal bovine serum (FBS). Cells were infected with recombinant adenoviruses containing either the p53 gene or the β-galactosidase gene (26) at a multiplicity of infection of 10-100. RNA was purified from cells at various times after infection using the MessageMaker Kit (Gibco/BRL). Northern blot analysis was performed as described (26).
(§2) Flow cytometry and other assays. Cells were collected with the aid of trypsin and incubated with CM-H2DCF-DA or NAO (Molecular Probes, Eugene, Oreg.) at concentrations of 10 and 0.4 μM, respectively, for 20 minutes at 37° C. prior to analysis by flow cytometry (14,15). To determine the fraction of apoptotic cells after various treatments, cells were stained with the DNA-binding dye H33258 and evaluated by fluorescence microscopy or flow cytometry as described (1). Superoxide production was assessed with lucigenin (29). In brief, 4-5×10^6 cells were collected with rubber policeman and resuspended in 1 ml of Earle's Balanced Salt Solution (Gibco BRL 14015-069, Life Technologies). Dark-adapted lucigenin (bis-N-methulacridinium nitrate, Sigma M8010) was added to the samples to a final concentration of 20 μM. Light emission was detected using a Berthold LB 9505C luminometer for 60 minutes at 37° C. Glutathione concentrations were measured using an assay kit purchased from Oxford Biomedical Res. Inc. according to the manufacturer's instructions. Caspase activation was assessed by cleavage of PARP (polyADP-ribose polymerase). Lysates from cells infected with Ad-p53 were Western blotted with an anti-PARP antibody, and the cleavage fragments were quantitated by densitometry (4).
To evaluate the patterns of gene expression following p53 expression, we employed SAGE, a technique which allows the quantitative evaluation of cellular mRNA populations (3). In brief, the method revolves around short sequence “tags” (11 bp), generated from defined positions within each mRNA molecule. Expression patterns are deduced from the abundance of individual tags. […] As previously shown, DLD-1 cells are among the ˜50% of CRC lines that undergo apoptosis in response to p53 (4). RNA was purified from cells 16 hours after infection, at least 8 hours before the onset of morphological signs of apoptosis.
To determine whether these steps were causally associated, we inhibited each step with specific pharmacologic agents and determined the effect of this inhibition on other components of the pathway.

In data set [2] the test system is DLD-1 cells. The experiment in a line: Toxicity of inhibitor to cells at the dose used. Particulars: 100 μM. How it is done: Finally, we treated cells with bongkrekic acid (BA), a specific inhibitor of mitochondrial ATP translocase which can block the mitochondrial permeability transition pore opening thought to be required for ROS-dependent forms of apoptosis (13). […] BA was non-toxic at the dose used (100 μM). While BA inhibited the p53-apoptotic process dependent on ROS production, it had no effect on the p53-mediated growth arrest dependent on p21 as assessed by flow cytometry.

The test system of a further data set is PIGs (p53-induced genes). The experiment in a line: PIG expression in DLD-1 cells (Northern blot). The following applies: for PIG induction by other inducers of ROS or apoptosis: DLD-1 cells. How it is done: as §1
To determine the specificity of PIG expression for the p53-dependent apoptotic process, we performed experiments with other inducers of ROS or apoptosis.

In data set [3] the test system is DLD-1 cells. The data set can be described thus: p53-mediated growth arrest dependent on p21 (flow cytometry). How it is done:
as §2, with “(4). […]” for “(4).”
(Flow cytometry measures light scatter and fluorescence of single cells or particles in a stream.)

The test system of data set [4] is DLD-1 cells. The experiment in a line: ROS production in Ad-p53-infected cells (lucigenin chemiluminescence). Particulars: treated 12 hours after Ad-p53 infection. How it is done: as §2, with “(4). […]” for “(4).”
A further data set has as its system PIG3. The experiment in a line: PIG3 induction by endogenous p53 in six CRC cancer cell lines. The procedure: as §1
As a further test of the p53-dependency of PIG3 induction, we determined whether PIG3 could be induced by endogenous p53 rather than through the exogenous Ad-p53 source. Six CRC cancer cell lines were each treated with adriamycin, a DNA-damaging and apoptotic-inducing agent known to increase endogenous p53 levels.

Data set [5] relates to DLD-1 cells. The data set can be described thus: Cell death by other inducers of apoptosis. The procedure:
as §2, with “(4). […]” for “(4).”

Data set [6] has as its system DLD-1 cells. The experiment in a line: ROS by CM-DCF-DA and cardiolipin by NAO, flow cytometry. How it is done:
FIG. 4A. DLD-1 cells were infected with Ad-p53 or control (Ad-lacZ) viruses and harvested after 27, 35, or 42 hours. Cells were incubated with CM-DCF-DA, a probe of ROS, or NAO, a probe of the mitochondrial membrane cardiolipin, and analyzed by flow cytometry. The mean fluorescence of the control cells is indicated by vertical lines in each box. The pro-oxidant drug menadione was used as a positive control to induce oxidative stress.
Flow cytometry and other assays. […] To determine the fraction of apoptotic cells after various treatments, cells were stained with the DNA-binding dye H33258 and evaluated by fluorescence microscopy or flow cytometry as described (1). Superoxide production was assessed with lucigenin (29). […] Light emission was detected using a Berthold LB 9505C luminometer for 60 minutes at 37° C. Glutathione concentrations were measured using an assay kit purchased from Oxford Biomedical Res. Inc. according to the manufacturer's instructions. Caspase activation was assessed by cleavage of PARP (polyADP-ribose polymerase). Lysates from cells infected with Ad-p53 were Western blotted with an anti-PARP antibody, and the cleavage fragments were quantitated by densitometry (4). […]

The mark [7] stands for this setting: 100 μM, treated 12 hours after Ad-p53 infection.

With `CO[C@H](C/C=C\C=C\CC/C=C/C[C@H](C)/C=C/C(=C\C(=O)O)CC(=O)O)/C(C)=C\C=C(/C)C(=O)O` [BA, bongkrekic acid], the “inhibition of subsequent apoptosis” value in the data set with DLD-1 cells [1] (setting [7]) is listed as 86-93%. The “toxicity at the dose used” value with DLD-1 cells [2] is given as “non-toxic”. Moreover, the PIG3 expression result with PIGs (p53-induced genes) (setting [7]) was “inhibit neither”. Besides, in the data set on DLD-1 cells [3], the “effect on p53-mediated growth arrest dependent on p21” value was “no effect”. Moreover, the ROS production result in the data set on DLD-1 cells [4] (100 μM) is on record as “inhibit neither”.

`c1ccc2c(c1)[I+]c1ccccc1-2` [DPI, diphenyleneiodonium chloride]: the inhibition (in general, the relative decrease from the control value, in per cent) at 25 µM lay in the range of 73 to 77% with DLD-1 cells [1] (Homo sapiens, DLD-1, 25 μM, treated 12 hours after Ad-p53 infection, measured 12 hours later, three independent experiments) and 71 to 85% in the data set on DLD-1 cells [4] (Homo sapiens, DLD-1, 25 μM, measured 12 hours later, three independent experiments). Also, in the data set with PIGs (p53-induced genes), the PIG3 production result was “did not inhibit”.

Take `OC[C@H]1O[C@@H](n2cnc3cc(Cl)c(Cl)cc32)[C@H](O)[C@@H]1O` [DRB, 5,6-dichlorobenimidizole riboside]: the block of apoptosis in the data set on DLD-1 cells [1] is given as 83+/−3%. Further, in the data set on PIGs (p53-induced genes) (Ad-p53-infected cells, DRB at 8 hours following infection), the “expression of PIGs” value is on record as “inhibit the expression of PIGs”.

As for `S=C(S)N1CCCC1` [PDTC, pyrrolidine dithiocarbamate], the “block of apoptosis elicited by p53” value in the data set on DLD-1 cells [1] (p53-expressing cells treated with anti-oxidant) is given as “able to block the apoptosis”.

As for `COc1cccc2c1C(=O)c1c(O)c3c(c(O)c1C2=O)C[C@@](O)(C(=O)CO)C[C@@H]3O[C@H]1C[C@H](N)[C@H](O)[C@H](C)O1` [adriamycin], the PIG3 induction entry with PIG3 (three CRC lines with mutant p53 genes) was “not in the three lines with mutant p53 genes”; in the data set on PIG3 (three CRC lines with wild-type p53 genes) it was “strongly induced”.

`C[C@@H]1C[C@@H]([C@H](O)CC2CC(=O)NC(=O)C2)C(=O)[C@@H](C)C1` [cycloheximide]: the block of apoptosis with DLD-1 cells [1] was found to be 79%.

Regarding `OO` [hydrogen peroxide], in the data set with PIGs (p53-induced genes), the “PIG induction by other inducers of ROS or apoptosis” value (“PIG induction by other inducers” below) is listed as “only p21 was induced”.

For `COc1ccc2c(c1)c(CC(=O)O)c(C)n2C(=O)c1ccc(Cl)cc1` [indomethacin], in the data set on PIGs (p53-induced genes), the “PIG induction by other inducers” value was “did not result in the expression of any PIG”. The cell death result in the data set with DLD-1 cells [5] is “extensive cell death”.

Regarding `CC1=CC(=O)c2ccccc2C1=O` [menadione], in the data set on PIGs (p53-induced genes), the “PIG induction by other inducers” value is listed as “none were induced”. Moreover, the “ROS (DCF fluorescence)” value in the data set on DLD-1 cells [6] was “increase in ROS”.

For the compound ceramide, in the data set on PIGs (p53-induced genes), the “PIG induction by other inducers” value is on record as “did not result in the expression of any PIG”. Moreover, the cell death entry in the data set with DLD-1 cells [5] was “extensive cell death”.

The values above are taken from patent US6432640B1, “P53-induced apoptosis” (priority 1997, dated 2002).
